Where two headings read alike, the source gives them in different places.
Assays:
[1] = test system: HCV replicon (1b) cells; test: Cell-based HCV replicon assay
Description: To measure cell-based anti-HCV activity of selected compounds of the present invention, replicon cells were seeded at 5000 cells/well in 96-well collagen I-coated Nunc plates in the presence of the test compound. […]. Cells were harvested on day 3 by the addition of 1× cell lysis buffer (Ambion cat #8721). The replicon RNA level was measured using real time PCR (Taqman assay). The amplicon was located in 5B. The PCR primers were: 5B.2F, […] (SEQ ID. NO. 1); 5B.2R, […] (SEQ ID. NO. 2); the probe sequence was FAM-labeled […] (SEQ ID. NO. 3). GAPDH RNA was used as endogenous control and was amplified in the same reaction as NS5B (multiplex PCR) using primers and VIC-labeled probe recommended by the manufacturer (PE Applied Biosystem). The real-time RT-PCR reactions were run on ABI PRISM 7900HT Sequence Detection System using the following program: 48° C. for 30 minutes, 95° C. for 10 minutes, 40 cycles of 95° C. for 15 sec, 60° C. for 1 minute. The ΔCT values (CT5B-CTGAPDH) were plotted against the concentration of test compound and fitted to the sigmoid dose-response model using XLfit4 (MDL). […]; Alternatively, to quantitate the absolute amount of replicon RNA, a standard curve was established by including serially diluted T7 transcripts of replicon RNA in the Taqman assay. All Taqman reagents were from PE Applied Biosystems. Such an assay procedure was described in detail in e.g. Malcolm et al., Antimicrobial Agents and Chemotherapy 50: 1013-1020 (2006).

[2] = test system: replicon cells (1b-Con1); test: Cytotoxicity MTS assay in replicon cells; conditions: CC50, MTS assay, three days post dosing
[3] = test system: replicon cells (1b-Con1); test: Replicon activity assay (1b-Con1); type: cell-based, HCV; conditions: Hepatitis C virus, 72 h, three days post-dosing
[4] = Hepatitis C virus, 72 h, replicon RNA level by real time PCR, cells harvested on day 3
[5] = replicon RNA level by real time PCR, cells harvested on day 3

## COC(=O)[C@H](C)NP(=O)(OC[C@H]1O[C@@H](n2ccc(N)nc2=O)[C@](C)(Cl)[C@@H]1O)Oc1ccccc1 (stereo partly drawn) [Compound 8]
[1]; [4]
  EC50: 34 µM

## COC(=O)[C@H](C)NP(=O)(OC[C@H]1O[C@@H](n2ccc(N)nc2=O)[C@](C)(SC)[C@@H]1O)Oc1ccccc1 (stereo partly drawn) [Compound 7]
[1]; [5]
  EC50: 29 µM

## CCOc1nc(N)nc2c1ncn2[C@@H]1O[C@H](COP(=O)(N[C@@H](C)C(=O)OC)Oc2ccccc2)C(O)[C@@]1(C)N (single isomer, unassigned) [Compound 21]
[1]; [4]
  EC50: 2.6 µM

## C[C@H](NP(=O)(OC[C@H]1O[C@@H](n2ccc(N)nc2=O)[C@](C)(N)C1O)Oc1ccccc1)C(=O)OCC(C)(C)C (single isomer, unassigned) [Compound 59]
[1]; [5]
  EC50: 11 µM

## CC(C)OC(=O)[C@H](C)NP(=O)(OC[C@H]1O[C@@H](n2ccc(N)nc2=O)[C@](C)(N)C1O)Oc1ccccc1 (stereo partly drawn)
[2]
  Cytotoxicity: >100 µM
[3]
  EC50: 5.5 µM

## COc1nc(N)nc2c1ncn2[C@@H]1O[C@H](COP(=O)(N[C@@H](C)C(=O)OCC(C)(C)C)Oc2ccccc2)C(O)[C@@]1(C)N (single isomer, unassigned) [Compound 53]
[1]; [5]
  EC50: 2.7 µM

## CC(C)OC(=O)[C@H](C)NP(=O)(OC[C@H]1O[C@@H](n2ccc(=O)[nH]c2=O)[C@](C)(N)[C@@H]1O)Oc1ccccc1 (stereo partly drawn) [drawing 239]
[2]
  Cytotoxicity: >100 µM
[3]
  EC50: 3.1 µM

## C[C@@]1(S(C)(=O)=O)[C@H](O)[C@@H](CO)O[C@H]1n1ccc(N)nc1=O [Compound 3]
[1]
  EC50: > 100 µM

## COc1nc(N)nc2c1ncn2[C@@H]1O[C@H](COP(=O)(N[C@@H](C)C(=O)OC(C)C)Oc2ccccc2)C(O)[C@@]1(C)N (single isomer, unassigned) [Compound 23]
[1]; [5]
  EC50: > 100 µM

## CCOc1nc(N)nc2c1ncn2[C@@H]1O[C@H](COP(=O)(N[C@@H](C)C(=O)OCC(C)(C)C)Oc2ccccc2)C(O)[C@@]1(C)N (single isomer, unassigned) [Compound 55]
[1]; [5]
  EC50: 3.1 µM

## COc1nc(N)nc2c1ncn2[C@@H]1O[C@H](CO)[C@@H](O)[C@@]1(C)N [Compound 15]
[1]; [4]
  EC50: > 100 µM

## CC(C)OC(=O)[C@H](C)NP(=O)(OC[C@H]1O[C@@H](n2ccc(=O)[nH]c2=O)[C@](C)(N)[C@@H]1O)Oc1ccccc1 (stereo partly drawn) [Compound 24]
[1]; [5]
  EC50: 5 µM

## CC(C)OP1(=O)OC[C@H]2O[C@@H](n3ccc(N)nc3=O)[C@](C)(N)[C@@H]2O1 (stereo partly drawn) [Compound 78]
[1]; [4]
  EC50: 30 µM

## C[C@@]1(N)[C@@H]2OP(=O)(OC3CCC3)OC[C@H]2O[C@H]1n1ccc(N)nc1=O (stereo partly drawn) [drawing 247]
[2]
  Cytotoxicity: >50 µM
[3]
  EC50: 2.8 µM

## CCOc1nc(N)nc2c1ncn2[C@@H]1O[C@H](CO)[C@@H](O)[C@@]1(C)N [Compound 10]
[1]
  EC50: 29 µM

## C[C@H](NP(=O)(OC[C@H]1O[C@@H](n2ccc(=O)[nH]c2=O)[C@](C)(N)C1O)Oc1ccccc1)C(=O)OCC(C)(C)C (single isomer, unassigned) [Compound 57]
[1]; [5]
  EC50: 9.9 µM

## COc1nc(N)nc2c1ncn2[C@@H]1O[C@@H]2COP(=O)(OC(C)C)O[C@H]2[C@@]1(C)N (stereo partly drawn) [drawing 240]
[2]
  Cytotoxicity: >100 µM
[3]
  EC50: 43.7 µM

## CCOc1nc(N)nc2c1ncn2[C@@H]1O[C@H](COP(=O)(N[C@@H](C)C(=O)OC)Oc2ccccc2)[C@@H](O)[C@@]1(C)SC (stereo partly drawn) [drawing 242]
[2]
  Cytotoxicity: >100 µM
[3]
  EC50: 38 µM

## CCOC(=O)[C@H](C)NP(=O)(OC[C@H]1O[C@@H](n2cnc3c(OC)nc(N)nc32)[C@](C)(N)C1O)Oc1ccccc1 (single isomer, unassigned) [Compound 29]
[1]; [5]
  EC50: 0.1 µM

## C[C@@]1(n2ccnn2)[C@H](O)[C@@H](CO)O[C@H]1n1ccc(N)nc1=O [Compound 4]
[1]
  EC50: > 100 µM

## CCCCOC(=O)[C@H](C)NP(=O)(OC[C@H]1O[C@@H](n2cnc3c(OCC)nc(N)nc32)[C@](C)(SC)[C@@H]1O)Oc1cccc2ccccc12 (stereo partly drawn) [Compound 44]
[1]; [4]
  EC50: 24 µM

## C[C@@]1(C(N)=O)[C@H](O)[C@@H](CO)O[C@H]1n1ccc(N)nc1=O [Compound 85]
[1]; [5]
  EC50: 45 µM

## CC(C)COC(=O)[C@H](C)NP(=O)(OC[C@H]1O[C@@H](n2ccc(=O)[nH]c2=O)[C@](C)(N)[C@@H]1O)Oc1ccccc1 (single isomer, unassigned) [Compound 67]
[1]; [4]
  EC50: 6.8 µM

## C[C@H](NP(=O)(OC[C@H]1O[C@@H](n2ccc(=O)[nH]c2=O)[C@](C)(N)C1O)Oc1ccccc1)C(=O)OCC(C)(C)C (single isomer, unassigned) [Compound 56]
[1]; [5]
  EC50: 0.7 µM

## C[C@@]1(N)[C@H](O)[C@@H](CO)O[C@H]1n1cnc2c(N3CCC3)nc(N)nc21 [Compound 17]
[1]; [4]
  EC50: > 100 µM

## C[C@H](NP(=O)(OC[C@H]1O[C@@H](n2ccc(N)nc2=O)[C@](C)(N)C1O)Oc1ccccc1)C(=O)OCC(C)(C)C (single isomer, unassigned) [Compound 58]
[1]; [5]
  EC50: 4.4 µM

## CC(C)COC(=O)[C@H](C)NP(=O)(OC[C@H]1O[C@@H](n2ccc(N)nc2=O)[C@](C)(N)[C@@H]1O)Oc1ccccc1 (single isomer, unassigned) [Compound 64]
[1]; [4]
  EC50: 6.6 µM

## CCOc1nc(N)nc2c1ncn2[C@@H]1O[C@H](COP(=O)(N[C@@H](C)C(=O)OC)Oc2ccccc2)C(O)[C@@]1(C)N (stereo partly drawn) [drawing 243]
[2]
  Cytotoxicity: >100 µM
[3]
  EC50: 2.5 µM

## CCOC(=O)[C@H](C)NP(=O)(OC[C@H]1O[C@@H](n2cnc3c(OC)nc(N)nc32)[C@](C)(N)C1O)Oc1ccccc1 (single isomer, unassigned) [Compound 28]
[1]; [4]
  EC50: 0.1 µM

## COc1nc(N)nc2c1ncn2[C@@H]1O[C@H](COP(=O)(N[C@@H](C)C(=O)OCC(C)(C)C)Oc2ccccc2)C(O)[C@@]1(C)N (stereo partly drawn)
[2]
  Cytotoxicity: >100 µM
[3]
  EC50: 0.9 µM

## CCOc1nc(N)nc2c1ncn2[C@@H]1O[C@H](COP(=O)(N[C@@H](C)C(=O)OC)Oc2ccccc2)C(O)[C@@]1(C)N (stereo partly drawn) [Compound 20]
[1]; [5]
  EC50: 2.5 µM

## CC(C)COC(=O)[C@H](C)NP(=O)(OC[C@H]1O[C@@H](n2ccc(N)nc2=O)[C@](C)(N)[C@@H]1O)Oc1ccccc1 (stereo partly drawn)
[2]
  Cytotoxicity: 50 µM
[3]
  EC50: 6.6 µM

## COc1nc(N)nc2c1ncn2[C@@H]1O[C@H](COP(=O)(N[C@@H](C)C(=O)OCC(C)(C)C)Oc2ccccc2)C(O)[C@@]1(C)N (single isomer, unassigned) [Compound 52]
[1]; [5]
  EC50: 0.9 µM

## CC(=O)N[C@]1(C)[C@H](O)[C@@H](CO)O[C@H]1n1ccc(N)nc1=O [Compound 9]
[1]
  EC50: 100 µM

## C[C@@]1(Cl)[C@H](O)[C@@H](CO)O[C@H]1n1ccc(N)nc1=O [Compound 6]
[1]
  EC50: 10 µM

## C[C@@]1(N)[C@H](O)[C@@H](CO)O[C@H]1n1ccc(N)nc1=O [Compound 1]
[1]; [5]
  EC50: 100 µM

## C#C[C@]1(C)[C@H](O)[C@@H](COP(=O)(N[C@@H](C)C(=O)OC(C)C)Oc2ccccc2)O[C@H]1n1ccc(=O)[nH]c1=O (stereo partly drawn)
[2]
  Cytotoxicity: >100 µM
[3]
  EC50: 2.3 µM

## COc1nc(N)nc2c1ncn2[C@@H]1O[C@H](COP(=O)(N[C@@H](C)C(=O)OC(C)C)Oc2ccccc2)C(O)[C@@]1(C)N (single isomer, unassigned) [Compound 22]
[1]; [5]
  EC50: 2.6 µM

## CCOc1nc(N)nc2c1ncn2[C@@H]1O[C@H](COP(=O)(N[C@@H](C)C(=O)OC)Oc2ccccc2)[C@@H](O)[C@@]1(C)SC (stereo partly drawn) [Compound 43]
[1]; [4]
  EC50: 38 µM

## CCOc1nc(N)nc2c1ncn2[C@@H]1O[C@H](COP(=O)(N[C@@H](C)C(=O)OC)Oc2ccccc2)C(O)[C@@]1(C)NC(N)=O (stereo partly drawn) [Compound 12]
[1]; [4]
  EC50: > 100 µM

## C[C@@]1(N)[C@H](O)[C@@H](CO)O[C@H]1n1ccc(=O)[nH]c1=O [Compound 16]
[1]; [4]
  EC50: > 100 µM

## C[C@H](NP(=O)(OC[C@H]1O[C@@H](n2ccc(=O)[nH]c2=O)[C@](C)(N)C1O)Oc1ccccc1)C(=O)OCC(C)(C)C (stereo partly drawn)
[2]
  Cytotoxicity: >100 µM
[3]
  EC50: 0.7 µM

## C[C@@]1(N)[C@@H]2OP(=O)(OC3CCC3)OC[C@H]2O[C@H]1n1ccc(N)nc1=O (stereo partly drawn) [Compound 79]
[1]; [4]
  EC50: 2.8 µM

## COc1nc(N)nc2c1ncn2[C@@H]1O[C@@H]2COP(=O)(OC(C)C)O[C@H]2[C@@]1(C)N (stereo partly drawn) [Compound 98]
[1]; [5]
  EC50: 43 µM

## CCOc1nc(N)nc2c1ncn2[C@@H]1O[C@H](COP(=O)(N[C@@H](C)C(=O)OCC(C)(C)C)Oc2ccccc2)C(O)[C@@]1(C)N (single isomer, unassigned) [Compound 54]
[1]; [5]
  EC50: 1.5 µM

## CCOC(=O)[C@H](C)NP(=O)(OC[C@H]1O[C@@H](n2cnc3c(OC)nc(N)nc32)[C@](C)(N)[C@@H]1O)Oc1ccccc1 (stereo partly drawn) [drawing 248]
[2]
  Cytotoxicity: >100 µM
[3]
  EC50: 0.1 µM

## C[C@H](NP(=O)(OC[C@H]1O[C@@H](n2ccc(N)nc2=O)[C@](C)(N)C1O)Oc1ccccc1)C(=O)OCC(C)(C)C (stereo partly drawn)
[2]
  Cytotoxicity: >100 µM
[3]
  EC50: 4.4 µM

## COC(=O)[C@H](C)NP(=O)(OC[C@H]1O[C@@H](n2ccc(N)nc2=O)[C@](C)(n2ccnn2)[C@@H]1O)Oc1ccccc1 (stereo partly drawn) [Compound 5]
[1]; [5]
  EC50: 90 µM

From US9061041B2, “2′-substituted nucleoside derivatives and methods of use thereof for the treatment of viral diseases” (Merck Sharp & Dohme Corp., priority 2011, dated 2015)
